According to patent EP0131315A2, “Nasal preparations comprising anticholinergic quaternary ammonium salts” (ISTITUTO DE ANGELI S.p.A., priority 1983, dated 1985):
Several values for one entry are separate records, joined by “and”; a condition that tells them apart may be missing. Equal values may be shown once. Read-outs that look alike come from different tables or passages of the source.

Tests used:
[1] = Urinary excretion (bioavailability) after intravenous, oral and nasal administration in the rat; drug in urine determined by muscarinic receptor binding assay; assay type: in vivo, male Sprague-Dawley rats; settings: for amount of the compound found in the urine / dose excreted at 6 h / dose excreted at 24 h / dose excreted at 12 h: 2 mg/rat; for dose excreted at 6 h / dose excreted at 24 h / dose excreted at 12 h / bioavailability: urine, 2 mg; for dose excreted at 6 h: hours 0-6, mean of 10 rats; for dose excreted at 6 h / dose excreted at 24 h / dose excreted at 12 h: read-out: amount of the compound found in the urine; for dose excreted at 12 h: hours 6-12, mean of 10 rats
Method: As a representative drug of this class of compounds N-cyclopropylmethylscopolamine bromide was employed in the method and in the compositions according to the present invention. The bioavailability of this compound after administration by nasal and oral route has been examined and then compared by the following general method. The investigated drug was administered in equal doses by the nasal, oral and intravenous route. 6, 12 and 24 hours after administration the quantitative excretion into the urine for any of the routes of administration was studied. The total amount of the drug excreted during the investigated time intervals was expressed as percentage of the intravenously eliminated amount, considering the latter value as an equivalent for 100% bioavailability.
In detail the following studies have been carried out. For each experiment 10 male Sprague-Dawley rats, weighing 280+ 20g have been used. For the i.v. administration rats fasted for 18 hours were anaesthetized by intraperitoneal sodium pentobarbital solution 2 ml/kg corresponding to 60 mg/kg/rat. A 4% solution of the drug in buffered saline (pH=7.4) was injected into the femoral vein ([…] corresponding to 2 mg of the active ingredient). For the oral administration 18 hours fasted and conscious rats received an 0.2% solution of the drug in saline by means of a stomach tube (1 ml/rat corresponding to 2 mg of the active principle). For the nasal administration the investigated compounds, for example N-cyclopropylmethyl scopolamine bromide, was administered to 18 hours fasted and as above described anaesthetized rats at a dose of 2 mg/rat.
(§1) This dose corresponds either to 25µl of saline (4% solution) or 5 mg of a 20% gel introduced into both nasal cavities by means of micropipette. After the administration by any route the animals were transfered into metabolic cages and received 3 ml of water by stomach tube. The urine was collected 6,12 and 24 hours after administration and the excreted drug was determined with the following original method which is based on the binding affinity of the drugs to their pharmacological receptors. […] It follows from this that knowing the affinity of the drugs it is possible to assay the concentration of the drugs in biological fluids. For this a suitable in vitro receptor preparation and a radio ligand that can bind specifically to the receptor and can be displaced by the test compound is needed. In the present invention tritiated N-methyl- scopolamine (^3H-NMS) in a final concentration of 3.10^-10M that occupies 50% of the muscarinic receptors was employed. As in vitro receptor preparation we used a homogenate from rat cerebral cortex diluted 1:3000 in 20 mM HEPES, 100 mM NaCl and 10 mM MgCl2 (pH 7.4). After incubation of ^3H-NMS with the receptor preparation receptor bound ligand was separated from free ligand by centrifugation and the amountof the receptor bound ligand was measured as radioactivity (dpm) in the pellet.

[2] = system: muscarinic receptor of cerebral cortex; test: Displacement of 3H-NMS from the muscarinic receptor (standard curve, Fig. 1); assay type: binding; settings: rat cerebral cortex homogenate, 3H-NMS 3.10^-10M, increasing concentrations
Method: as §1, with “pellet. […]” for “pellet.”

## C[N+]1(CC2CC2)C2CC(OC(=O)C(CO)c3ccccc3)CC1C1OC12 (centres unmarked) [N-cyclopropylmethylscopolamine bromide]
[1]; I.V., hours 0-6, rat (relative to total 0-24 h i.v. excretion)
  PERCENT URINARY EXCRETION BY OTHER ROUTES RELATIVE TO I.V. ADMINISTRATION: 88.01%
[1]; I.V., hours 0-24, rat (reference = 100)
  PERCENT URINARY EXCRETION BY OTHER ROUTES RELATIVE TO I.V. ADMINISTRATION: 100.00%
[1]; I.V., hours 6-12, rat
  PERCENT URINARY EXCRETION BY OTHER ROUTES RELATIVE TO I.V. ADMINISTRATION: 8.45%
[1]; I.V., hours 12-24, rat
  PERCENT URINARY EXCRETION BY OTHER ROUTES RELATIVE TO I.V. ADMINISTRATION: 3.54%
[1]; NASAL GEL, hours 0-6, rat
  PERCENT URINARY EXCRETION BY OTHER ROUTES RELATIVE TO I.V. ADMINISTRATION: 9.01%
[1]; NASAL GEL, hours 0-24, rat
  PERCENT URINARY EXCRETION BY OTHER ROUTES RELATIVE TO I.V. ADMINISTRATION: 22.85%
[1]; NASAL GEL, hours 6-12, rat
  PERCENT URINARY EXCRETION BY OTHER ROUTES RELATIVE TO I.V. ADMINISTRATION: 8.90%
[1]; NASAL GEL, hours 12-24, rat
  PERCENT URINARY EXCRETION BY OTHER ROUTES RELATIVE TO I.V. ADMINISTRATION: 4.94%
[1]; NASAL SOLUTION, hours 0-6, rat
  PERCENT URINARY EXCRETION BY OTHER ROUTES RELATIVE TO I.V. ADMINISTRATION: 21.23%
[1]; NASAL SOLUTION, hours 0-24, rat
  PERCENT URINARY EXCRETION BY OTHER ROUTES RELATIVE TO I.V. ADMINISTRATION: 23.00%
[1]; NASAL SOLUTION, hours 6-12, rat
  PERCENT URINARY EXCRETION BY OTHER ROUTES RELATIVE TO I.V. ADMINISTRATION: 1.43%
[1]; NASAL SOLUTION, hours 12-24, rat
  PERCENT URINARY EXCRETION BY OTHER ROUTES RELATIVE TO I.V. ADMINISTRATION: 0.34%
[1]; OS, hours 0-6, rat
  PERCENT URINARY EXCRETION BY OTHER ROUTES RELATIVE TO I.V. ADMINISTRATION: 1.02%
[1]; OS, hours 0-24, rat
  PERCENT URINARY EXCRETION BY OTHER ROUTES RELATIVE TO I.V. ADMINISTRATION: 1.40%
[1]; OS, hours 6-12, rat
  PERCENT URINARY EXCRETION BY OTHER ROUTES RELATIVE TO I.V. ADMINISTRATION: 0.30%
[1]; OS, hours 12-24, rat
  PERCENT URINARY EXCRETION BY OTHER ROUTES RELATIVE TO I.V. ADMINISTRATION: 0.08%
[1]; nasal gel, excretion nearly constant 0-6 and 6-12 hours, rat
  release profile from urinary excretion: prolonged release
[1]; nasal, both by solution and in the form of gel, rat
  absorption after nasal administration as compared to the per oral form: 16 times
[1]; nasal, gel, hours 0-24, individual rats, 1440 min
  amount of the compound found in the urine: 5.26 percentage of the total administered dose and 11.19 percentage of the total administered dose and 5.28 percentage of the total administered dose and 5.19 percentage of the total administered dose and 8.40 percentage of the total administered dose and 6.94 percentage of the total administered dose
[1]; nasal, gel, hours 6-12, individual rats, 720 min
  amount of the compound found in the urine: 2.00 percentage of the total administered dose and 4.58 percentage of the total administered dose and 1.63 percentage of the total administered dose and 2.17 percentage of the total administered dose and 3.24 percentage of the total administered dose and 2.90 percentage of the total administered dose and 1.53 percentage of the total administered dose
[1]; nasal, gel, hours 12-24, individual rats, 1440 min
  amount of the compound found in the urine: 1.19 percentage of the total administered dose and 1.9 percentage of the total administered dose and 2.0 percentage of the total administered dose and 0.63 percentage of the total administered dose and 2.04 percentage of the total administered dose and 1.18 percentage of the total administered dose
[1]; nasal, solution, hours 0-6, individual rats, 360 min
  amount of the compound found in the urine: 4.12 percentage of the total administered dose and 6.25 percentage of the total administered dose and 5.53 percentage of the total administered dose and 8.86 percentage of the total administered dose and 2.93 percentage of the total administered dose and 2.68 percentage of the total administered dose and 4.82 percentage of the total administered dose and 11.42 percentage of the total administered dose and 5.17 percentage of the total administered dose and 4.55 percentage of the total administered dose
[1]; nasal, solution, hours 0-24, individual rats, 1440 min
  amount of the compound found in the urine: 4.52 percentage of the total administered dose and 6.59 percentage of the total administered dose and 5.75 percentage of the total administered dose and 9.23 percentage of the total administered dose and 3.17 percentage of the total administered dose and 3.11 percentage of the total administered dose and 5.55 percentage of the total administered dose and 11.88 percentage of the total administered dose and 6.12 percentage of the total administered dose and 5.07 percentage of the total administered dose
[1]; nasal, solution, hours 6-12, individual rats, 720 min
  amount of the compound found in the urine: 0.33 percentage of the total administered dose and 0.25 percentage of the total administered dose and 0.13 percentage of the total administered dose and 0.23 percentage of the total administered dose and 0.19 percentage of the total administered dose and 0.39 percentage of the total administered dose and 0.65 percentage of the total administered dose and 0.28 percentage of the total administered dose and 0.86 percentage of the total administered dose and 0.44 percentage of the total administered dose
[1]; rat, nasal, gel
  dose excreted at 6 h: 2.39%
  dose excreted at 12 h: 2.36%
[1]; rat, nasal, gel, hours 0-24, mean of 10 rats
  dose excreted at 24 h: 6.06%
[1]; rat, nasal, gel, hours 12-24, mean of 10 rats
  dose excreted at 24 h: 1.31%
[1]; rat, nasal, solution
  dose excreted at 6 h: 5.63%
  dose excreted at 12 h: 0.38%
[1]; rat, nasal, solution, hours 0-24, mean of 10 rats
  dose excreted at 24 h: 6.1%
[1]; rat, nasal, solution, hours 12-24, mean of 10 rats
  dose excreted at 24 h: 0.09%
[1]; rat, iv, intravenous
  dose excreted at 6 h: 23.2%
  dose excreted at 12 h: 2.24%
[1]; rat, iv, intravenous, hours 0-24, individual rats
  dose excreted at 24 h: 31%
[1]; rat, iv, intravenous, hours 0-24, mean of 10 rats
  dose excreted at 24 h: 26.5%
[1]; rat, iv, intravenous, hours 12-24, mean of 10 rats
  dose excreted at 24 h: 0.94%
[1]; rat, po, oral
  dose excreted at 6 h: 0.27%
  dose excreted at 12 h: 0.08%
[1]; rat, po, oral, hours 0-24, mean of 10 rats
  dose excreted at 24 h: 0.37%
[1]; rat, po, oral, hours 12-24, mean of 10 rats
  dose excreted at 24 h: 0.02%
[1]; after oral administration, rat, read-out: bioavailability
  bioavailability: 1.4%
[1]; nasal route, both galenic formulations, solution and gel, rat, read-out: absolute bioavailability
  bioavailability: 23%
[2]
  ability to displace 3H-NMS from the muscarinic receptor: inhibit the specific binding between ^3H-NMS and receptor in a dose dependent manner
